Here are results for 12 molecules from ChEMBL document CHEMBL3044771, “Synthesis, characterization, and in vitro anti-Mycobacterium tuberculosis activity of terpene Schiff bases” (2013).

What is called MIC is the least concentration at which growth counts as inhibited.

Values after ≈ are worked out from the molar mass of the structure shown.

Type in all cases: functional
The subject of one assay is Mycobacterium xenopi. In words: Antitubercular activity against Mycobacterium xenopi ATCC 14470 assessed as growth inhibition after 48 hr by NCCLS agar dilution method. Conditions: ATCC 14470, 48 h. Background: In agar dilution the substance is mixed into plates at graded concentrations.
Assay [1] relates to Mycolicibacterium smegmatis. As to the kind of experiment: Antitubercular activity against Mycobacterium smegmatis ATCC 35797 assessed as growth inhibition after 48 hr by NCCLS agar dilution method. Conditions: ATCC 35797, 48 h.
Another assay concerns Mycobacteroides chelonae. As to the kind of experiment: Antitubercular activity against Mycobacterium chelonae ATCC 35751 assessed as growth inhibition after 48 hr by NCCLS agar dilution method. Conditions: ATCC 35751, 48 h.
For assay [2], the system named is Mycobacterium intracellulare. As to the kind of experiment: Antitubercular activity against Mycobacterium intracellulare ATCC 35743 assessed as growth inhibition after 48 hr by NCCLS agar dilution method. The settings on record: ATCC 35743, 48 h.

Consider `CC12CCC(C/C1=N/NC(=O)c1ccncc1)C2(C)C` (stereo not drawn), for which the MIC (with Mycobacterium xenopi; in assay [1]; in the assay on Mycobacteroides chelonae; in assay [2]) was 50 µg/mL (≈ 184 µM) throughout.
Regarding `C=C(C)C1CC=C(C)/C(=N/NC(=O)c2ccncc2)C1` (stereo not drawn), the minimal inhibitory concentration (MIC) (in the assay with Mycobacterium xenopi; in assay [1]; with Mycobacteroides chelonae; in assay [2]) was 12 µg/mL (≈ 44.6 µM) in each case.
On to `CCn1cc(C(=O)N/N=C\C=C(/C)CCC=C(C)C)c(=O)c2ccc(C)nc21`, for which the MIC (in the assay with Mycobacterium xenopi; in assay [1]; in the assay with Mycobacteroides chelonae; in assay [2]) was greater than 100 µg/mL in each case.
With `CCn1cc(C(=O)N/N=C2\CC3CCC2(C)C3(C)C)c(=O)c2ccc(C)nc21` (stereo not drawn), the minimal inhibitory concentration (MIC) (with Mycobacterium xenopi; in assay [1]; with Mycobacteroides chelonae; in assay [2]) was 50 µg/mL (≈ 131 µM) throughout.
Take `C=C(C)C1CC=C(C)/C(=N\NC(=O)c2cn(CC)c3nc(C)ccc3c2=O)C1` (stereo not drawn): the MIC (in the assay with Mycobacterium xenopi; in assay [1]; in the assay on Mycobacteroides chelonae; in assay [2]) was greater than 100 µg/mL each time.
For the molecule `CC(C)=CCC/C(C)=C\C=N/NC(=O)c1ccccc1Nc1cccc(C)c1C`, the MIC (with Mycobacterium xenopi; in assay [1]; in the assay with Mycobacteroides chelonae; in assay [2]) was greater than 100 µg/mL in each case.
As for `Cc1cccc(Nc2ccccc2C(=O)N/N=C2\CC3CCC2(C)C3(C)C)c1C` (stereo not drawn), the MIC (in the assay with Mycobacterium xenopi; in assay [1]; with Mycobacteroides chelonae; in assay [2]) was greater than 100 µg/mL each time.
With `C=C(C)C1CC=C(C)/C(=N/NC(=O)c2ccccc2Nc2cccc(C)c2C)C1` (stereo not drawn), the MIC (in the assay on Mycobacterium xenopi; in assay [1]; with Mycobacteroides chelonae; in assay [2]) was greater than 100 µg/mL in each case.
For the molecule `CC12CCC(C/C1=N\NC(=O)c1ccccc1Nc1cccc(C(F)(F)F)c1)C2(C)C` (stereo not drawn), the MIC (with Mycobacterium xenopi; in assay [1]; in the assay with Mycobacteroides chelonae; in assay [2]) was greater than 100 µg/mL throughout.
Turning to `C=C(C)C1CC=C(C)/C(=N/NC(=O)c2ccccc2Nc2cccc(C(F)(F)F)c2)C1` (stereo not drawn), the MIC (with Mycobacterium xenopi; in assay [1]; with Mycobacteroides chelonae; in assay [2]) was greater than 100 µg/mL each time.
In the case of `CC(C)=CCC/C(C)=C/C=N/NC(=O)c1ccncc1`, the MIC (in the assay on Mycobacterium xenopi; in assay [1]; with Mycobacteroides chelonae; in assay [2]) was greater than 100 µg/mL in each case.
As for `NNC(=O)c1ccncc1` [ISONIAZID], the MIC (in the assay on Mycobacterium xenopi; in assay [1]; in the assay on Mycobacteroides chelonae; in assay [2]) was 12.5 µg/mL (≈ 91.1 µM) throughout.
